Laboratory results from US20090170880A1, “Methods and Means for the Treatment of Cancer” (priority 2007, published 2009).

Experiments:
[1] = target: T1, murine Bcrp1 (Mus musculus, UniProt Q7TMS5); experiment: Transwell transport of temozolomide, MDCKII-Bcrp1 cells, without or with inhibitors; type: in vitro ADME; settings: MDCKII-Bcrp1 cells
T1 construct: expressed in transfected cells; host or cells: MDCKII (canine kidney) cells transduced with murine Bcrp1
T1 sequence (Q7TMS5 1-657): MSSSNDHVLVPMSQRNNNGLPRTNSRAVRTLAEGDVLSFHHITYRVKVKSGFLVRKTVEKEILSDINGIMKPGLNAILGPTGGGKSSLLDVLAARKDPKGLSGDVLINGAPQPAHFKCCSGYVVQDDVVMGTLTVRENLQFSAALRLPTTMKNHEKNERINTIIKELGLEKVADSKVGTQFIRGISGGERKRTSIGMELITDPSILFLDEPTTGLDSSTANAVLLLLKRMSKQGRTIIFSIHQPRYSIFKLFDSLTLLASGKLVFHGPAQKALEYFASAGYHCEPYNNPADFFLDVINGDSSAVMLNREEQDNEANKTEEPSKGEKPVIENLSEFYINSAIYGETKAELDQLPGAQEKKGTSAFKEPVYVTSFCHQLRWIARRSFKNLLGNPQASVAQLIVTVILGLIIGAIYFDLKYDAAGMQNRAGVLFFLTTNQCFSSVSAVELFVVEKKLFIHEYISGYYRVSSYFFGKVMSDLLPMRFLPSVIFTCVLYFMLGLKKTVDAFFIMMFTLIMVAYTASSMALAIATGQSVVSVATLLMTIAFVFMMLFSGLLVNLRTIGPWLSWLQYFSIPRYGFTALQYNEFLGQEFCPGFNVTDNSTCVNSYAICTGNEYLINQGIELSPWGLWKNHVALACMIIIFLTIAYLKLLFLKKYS
Protocol: The parental LLC pig-kidney (PK1) cell line and sublines transduced with murine Mdr1a or human MDR1 (12) and the parental Madine Darby Canine Kidney (MDCK) and murine Bcrp1 or human BCRP transduced sublines (13) were seeded on Transwell microporous polycarbonate membrane filters (3.0 μm pore size, 24 mm diameter; Costar Corning, N.Y., USA) at a density of 1×10^6 cells per well in 2 ml of MEM medium (Invitrogen Corporation, Carlsbad, Calif.) containing 10% v/v fetal calf serum. Cells were incubated at 37° C. in 5% CO2 for three days with one medium replacement after the first day. Two hours before the start of the experiment the medium in both compartments was replaced with 2 ml of OptiMEM medium (InVitrogen Corp.). At the start of the experiment the medium in the apical or basolateral compartment was replaced with 2 ml of freshly prepared OptiMEM medium containing 40 μg/ml of temozolomide. […] Zosuquidar (LY335979, 5 μM) was always added to the medium when doing experiments with MDCK cell lines to inhibit endogenous canine P-gp. Samples of 50 μl were collected every 30 min, for up to 2 h after start of the experiment. Because temozolomide is instable in medium at 37° C., we replaced one ml of the donor compartment by a freshly prepared aliquot every 30 min. [^3H]-inulin (approximately 7 kBq per well) was added to the same compartment as temozolomide to check the integrity of the cell layer. Wells showing a leakage of more than 1.5% per hour were excluded.
First, we took samples every 30 min for up to 2 h instead of every hour for up to 4 h. Secondly, to maintain adequate temozolomide levels at the donor side throughout the experiment we replaced 1 ml of the 2 ml of medium at the donor side of the transwell at each sampling time by 1 ml of a freshly prepared temozolomide solution in medium.

[2] = tested on: intracranial Mel57-luc tumor xenografts; experiment: Efficacy against intracranial Mel57-luc tumor xenografts; type: in vivo, nude mice; settings: wild-type nude mice, elacridar oral 100 mg/kg/day×5 20-30 min before temozolomide oral 100 mg/kg/day×5
Protocol: Intracranial Mel57-luc (luciferase transfected subline) tumor xenografts in wild-type nude mice (WT) and mdr1ab knockout nude mice (MDR) were established according to the protocol below (see Kemper et al, Eur J Cancer 42:3294-3303, 2006).
The Mel57 cell line (University Medical Centre, Nijmegen, The Netherlands) is a human melanoma cell line and was cultured in MEM (Life Technologies Inc., Breda, The Netherlands) supplemented with 10% foetal calf serum, non-essential amino acids, streptomycin, penicillin and sodium pyruvate (all Life Technologies), and incubated at 37° C. and 5% CO2 in humidified air. The cell line was further transfected by standard protocols with lipofectamine using a pBS vector containing a β-actin driven luciferase gene coupled via an internal ribosome […] to GFP. After expansion, GFP bright cells were sorted to single cells by FACS, expanded and sublines tested for luciferase expression by an in vitro bioluminescence assay (Promega, Benelux BV, Leiden, The Netherlands). Three to five sublines showing the highest luminescence activity were tested in vivo for tumour take and intracranial growth behaviour. To retrieve tumour cells for injection, the cell culture was trypsinised (trypsin 0.05%; EDTA 0.02%, Life Technologies), washed two times with Hanks Balanced Saline Solution (HBSS, Life Technologies Inc.), counted and resuspended in an appropriate volume of HBSS. The single cell suspension was kept on ice until injection. […]
Mel57-luc cells (100,000 cells/2 μl) were injected stereotactically in the brain as described in detail in Kemper et al^14. […] The amount of bioluminescence in each animal was calculated relative to the first measurement when therapy was initiated (arbitrarily set at 100%) and was log converted prior to data analysis. Tumor volume was measured by bioluminescence activity (see Kemper et al, Eur J Cancer 42:3294-3303, 2006).

[3] = tested on: P-gp; experiment: Transwell control experiments with radioactively labeled P-gp and BCRP substrates; type: in vitro ADME; settings: inhibitor 20 μM, radiolabeled substrates, results not shown
Protocol: Similar experiments were conducted in the parental canine MDCK cells and its transduced murine Bcrp1 or human BCRP sublines. […] Together with these experiments we ran control experiments using well-established P-gp and BCRP substrates that were available to us as radioactively labeled compounds (^14C-trabectedin and ^14C-Indisulan, or ^14C-topotecan). […] Moreover, the integrity of all monolayers was checked using ^3H-inuline as marker compound. Wells showing more than 1.5% translocation of inuline per 30 min were considered to be leaky and excluded from the analysis.

[4] = tested on: P-gp and BCRP; experiment: Temozolomide brain and plasma levels at 2 h with or without oral inhibitor; type: in vivo; settings: wild-type mice, inhibitor 100 mg/kg oral, 2 h after temozolomide
Protocol: The mice were anesthetized with metoxyflurane and blood samples were obtained by cardiac puncture and collected on ice in tubes containing potassium EDTA as anticoagulant. […] Immediately after cardiac puncture the mice were killed by cervical dislocation and the brains were dissected and placed on ice. Within 60 min they were weighed and homogenized in 3 ml of ice-cold 1% of BSA in 0.05 M phosphate buffer adjusted to pH 2 and stored at −20° C. until further analysis. […] The brain-to-plasma ratio was calculated for each individual animal. The two-sided unpaired Student's t-test was used for statistical analysis of AUC values. Bonferroni's test for multiple comparisons was calculated using SPSS (v12.0.1; […]

[5] = in vivo; cited from earlier work
[6] = target: T2, P-gp (Mus musculus, UniProt P21447); settings: Mdr1ab knockout mice; cited from earlier work
T2 construct: host or cells: mice (Mdr1ab knockout versus wild type)
T2 sequence (P21447 whole entry): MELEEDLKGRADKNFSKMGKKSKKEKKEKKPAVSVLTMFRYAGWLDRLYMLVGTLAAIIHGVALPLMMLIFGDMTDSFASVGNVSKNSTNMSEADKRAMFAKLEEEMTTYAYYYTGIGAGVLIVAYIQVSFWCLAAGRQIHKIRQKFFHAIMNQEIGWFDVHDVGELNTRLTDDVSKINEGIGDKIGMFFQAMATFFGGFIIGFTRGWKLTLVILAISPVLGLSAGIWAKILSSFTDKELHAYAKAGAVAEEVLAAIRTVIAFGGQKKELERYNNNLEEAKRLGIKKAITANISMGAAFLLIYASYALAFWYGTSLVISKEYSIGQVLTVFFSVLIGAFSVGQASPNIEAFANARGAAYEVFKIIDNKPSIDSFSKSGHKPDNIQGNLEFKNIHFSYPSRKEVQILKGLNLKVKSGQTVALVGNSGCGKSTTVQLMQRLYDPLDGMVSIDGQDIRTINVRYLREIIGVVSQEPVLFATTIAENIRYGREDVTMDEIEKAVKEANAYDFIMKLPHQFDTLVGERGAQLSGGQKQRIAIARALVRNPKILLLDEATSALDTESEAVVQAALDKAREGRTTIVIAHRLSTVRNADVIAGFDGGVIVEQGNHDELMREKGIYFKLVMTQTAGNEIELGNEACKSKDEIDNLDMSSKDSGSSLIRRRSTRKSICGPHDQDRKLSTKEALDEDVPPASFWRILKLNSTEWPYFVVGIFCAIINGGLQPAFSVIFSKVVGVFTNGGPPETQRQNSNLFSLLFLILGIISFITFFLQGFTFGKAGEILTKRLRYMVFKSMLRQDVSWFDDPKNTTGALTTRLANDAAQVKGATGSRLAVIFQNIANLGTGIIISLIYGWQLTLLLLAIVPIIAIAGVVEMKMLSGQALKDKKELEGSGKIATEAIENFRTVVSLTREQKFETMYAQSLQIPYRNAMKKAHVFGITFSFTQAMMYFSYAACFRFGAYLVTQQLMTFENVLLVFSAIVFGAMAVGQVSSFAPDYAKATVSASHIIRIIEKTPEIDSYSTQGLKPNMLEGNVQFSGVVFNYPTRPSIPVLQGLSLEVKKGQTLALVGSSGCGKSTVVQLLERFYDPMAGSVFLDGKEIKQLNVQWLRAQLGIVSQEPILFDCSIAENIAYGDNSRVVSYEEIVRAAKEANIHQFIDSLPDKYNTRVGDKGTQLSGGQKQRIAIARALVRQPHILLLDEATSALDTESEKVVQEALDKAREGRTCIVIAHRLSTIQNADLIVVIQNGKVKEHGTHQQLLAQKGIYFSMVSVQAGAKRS

COc1cc2c(cc1OC)CN(CCc1ccc(NC(=O)c3cccc4c(=O)c5cccc(OC)c5[nH]c34)cc1)CC2 [elacridar]
effect on Bcrp1 mediated transport of temozolomide ([1]; inhibitor 5 μM): (almost) completely abrogated
efficacy of temozolomide with elacridar versus temozolomide alone [2]: more effective than temozolomide alone

C#Cc1cccc(Nc2ncnc3cc(OCCOC)c(OCCOC)cc23)c1 [erlotinib]
effect on Bcrp1 mediated transport of temozolomide ([1]; inhibitor 10 μM): (almost) completely abrogated

COc1cc2ncnc(Nc3ccc(F)c(Cl)c3)c2cc1OCCCN1CCOCC1 [gefitinib]
effect on Bcrp1 mediated transport of temozolomide ([1]; inhibitor 10 μM): (almost) completely abrogated
inhibition of P-gp mediated transport [3]: sufficient
effect on temozolomide plasma level [4]: significantly increased

Cc1ccc(NC(=O)c2ccc(CN3CCN(C)CC3)cc2)cc1Nc1nccc(-c2cccnc2)n1 [imatinib]
oral bioavailability [5]: > 90%

CO[C@@H]1[C@@H](OC(N)=O)[C@@H](O)[C@H](Oc2ccc3c(O)c(NC(=O)c4ccc(O)c(CC=C(C)C)c4)c(=O)oc3c2C)OC1(C)C [novobiocin]
effect on Bcrp1 mediated transport of temozolomide ([1]; inhibitor 50 μM): not sufficient

CC(=O)O[C@H]1C(=O)[C@@]2(C)[C@H]([C@H](OC(=O)c3ccccc3)[C@]3(O)C[C@H](OC(=O)[C@H](O)[C@@H](NC(=O)c4ccccc4)c4ccccc4)C(C)=C1C3(C)C)[C@]1(OC(C)=O)CO[C@@H]1C[C@@H]2O [paclitaxel]
brain-to-plasma ratio relative to wild-type controls [6]: more than 5 fold
